# Results reported in US8835466B2, “Synthesis and uses of pyroglutamic acid derivatives” (Prodimed, S.A., priority 2006, dated 2014).
# Test system: Ehrlich tumour cells (murine mammary adenocarcinoma)
# Assay: Effect of isomers and BLAS on in vivo tumour growth, Ehrlich tumours (Example 9)
# Design: species or system Balb/c mice
# Settings: for Inhibition of the in vivo growth of Ehrlich tumour cells, in words: 260 ng i.p. days 6, 7 and 14; for Tumour surface, overall values (Mean) / Tumour surface, overall values (Median) / Tumour volume, overall values (Mean) / Tumour volume, overall values (Median): 260 ng/mouse i.p. days 6, 7 and 14; for Differences in Ehrlich tumour growth rate vs. placebo, statistical significance p (Mann-Whitney U test): either in surface or volume, all days scored after the day 13th
# Text: This assay was made in order to compare the effect of each stereoisomer on in vivo tumour growth in mice with the effect of the mixture of all of them challenged with Ehlrich tumours. The same products, equipment, reagents, doses, vehicle and route of administration as in example 8 were used.
# Mice were inoculated with Ehrlich tumour cells. It was described as a murine mammary adenocarcinoma. Ehrlich tumour is a murine mammary carcinoma originally raised in an outbred mouse, and therefore it belongs to the so-called non-specific tumours (Subiza J L, Viñuela J E, Rodriguez R, Gil J, Figueredo M A, de la Concha. E G. Development of splenic natural suppressor (NS) cells in Ehrlich tumor bearing mice. Int J Cancer, 44:307 315; 1989). It may grow across histocompatibility barriers and therefore is not mouse strain specific (Carry P J, Prescott D M, Ogilvie G K. Resistance to Ehrlich ascites tumor in a strain of dystrophic mice. Cancer Res., 39:2139-2140; 1979).
# Ehrlich cells were maintained in vitro by serial passages every 3-4 days. Cultures were performed with RPMI medium medium (RPMI, 10% foetal calf serum, 2 mM L-glutamine, non essential aminoacids, 1 mM sodium pyruvate, 20 mM HEPES, 80 μg/mL gentamycin; all of them were purchased from Sigma, St. Louis, Mo., USA) by seeding 5×10^6 cells onto 75 cm^2 culture flasks. Tumour cells collected from 48 hour cultures were used as source of cells for the studies described below.
# Tumours were established by subcutaneous inoculation in the right hind flank. Mice (Balb/c) were inoculated with 0.2 mL containing 2×10^5 viable Ehrlich cells. The day of subcutaneous inoculation will be considered Day 0 of the test.
# Mice were observed daily and the tumour size recorded twice a week. This was carried out by measuring two perpendicular diameters (L/W) with a calliper. These measures were used to obtain both tumour surface and volume: Tumour surface=L×W(mm^2) Tumour volume=L×W^2×½(mm^3)
# Results were expressed as single values and/or as the mean±SD or median from each experimental group.
# A case-control study was performed with treated and control mice in order to determine whether differences between BLAS or each diferent stereoisomer and administration of placebo were present. […] The U-test of Mann Withney was chosen for being one of the better known non-parametrical tests, anyway, results for this test are equivalent both to those of Wilcoxon's sum of ranges and Kruskal-Wallis two-groups test.
# [1] = day 13 after tumour inoculation
# [2] = day 16 after tumour inoculation
# [3] = day 20 after tumour inoculation
# [4] = day 23 after tumour inoculation
# [5] = day 29 after tumour inoculation
# [6] = day 31 after tumour inoculation
# [7] = day 35 after tumour inoculation
# [8] = day 38 after tumour inoculation
compound,measurement,setting,value
"Br.N[C@@]1(C[n+]2ccccc2)C[C@@H](C(=O)O)NC1=O.[Br-] (single isomer, unassigned; isomer 1) [isomer 1, 3R,5S-1-(3-Amino-5-carboxy-2-oxopyrrolidin-3-ylmethyl)pyridinium bromide hidrobromide]","Inhibition of the in vivo growth of Ehrlich tumour cells, in words",,inhibit the in vivo growth
same,"Tumour surface, overall values (Mean)",day 0 after tumour inoculation,0 mm^2
same,"Tumour surface, overall values (Median)",day 0 after tumour inoculation,0 mm^2
same,"Tumour volume, overall values (Mean)",day 0 after tumour inoculation,0 mm^3
same,"Tumour volume, overall values (Median)",day 0 after tumour inoculation,0 mm^3
same,"Tumour surface, overall values (Mean)",day 8 after tumour inoculation,5.69 mm^2
same,"Tumour surface, overall values (Median)",day 8 after tumour inoculation,2 mm^2
same,"Tumour volume, overall values (Mean)",day 8 after tumour inoculation,9.91 mm^3
same,"Tumour volume, overall values (Median)",day 8 after tumour inoculation,2 mm^3
same,"Tumour surface, overall values (Mean)",[1],13.69 mm^2
same,"Tumour surface, overall values (Median)",[1],16 mm^2
same,"Tumour volume, overall values (Mean)",[1],31.34 mm^3
same,"Tumour volume, overall values (Median)",[1],32 mm^3
same,"Tumour surface, overall values (Mean)",[2],20.875 mm^2
same,"Tumour surface, overall values (Median)",[2],20.5 mm^2
same,"Tumour volume, overall values (Mean)",[2],53.12 mm^3
same,"Tumour volume, overall values (Median)",[2],47.25 mm^3
same,"Tumour surface, overall values (Mean)",[3],32.37 mm^2
same,"Tumour surface, overall values (Median)",[3],27.5 mm^2
same,"Tumour volume, overall values (Mean)",[3],105.19 mm^3
same,"Tumour volume, overall values (Median)",[3],68.75 mm^3
same,"Tumour surface, overall values (Mean)",[4],42.12 mm^2
same,"Tumour surface, overall values (Median)",[4],39.5 mm^2
same,"Tumour volume, overall values (Mean)",[4],160.5 mm^3
same,"Tumour volume, overall values (Median)",[4],123.25 mm^3
same,"Tumour surface, overall values (Mean)",[5],50 mm^2
same,"Tumour surface, overall values (Median)",[5],39.5 mm^2
same,"Tumour volume, overall values (Mean)",[5],202.19 mm^3
same,"Tumour volume, overall values (Median)",[5],123.25 mm^3
same,"Tumour surface, overall values (Mean)",[6],57 mm^2
same,"Tumour surface, overall values (Median)",[6],46.5 mm^2
same,"Tumour volume, overall values (Mean)",[6],249.06 mm^3
same,"Tumour volume, overall values (Median)",[6],147.75 mm^3
same,"Tumour surface, overall values (Mean)",[7],68.87 mm^2
same,"Tumour surface, overall values (Median)",[7],52.5 mm^2
same,"Tumour volume, overall values (Mean)",[7],342.94 mm^3
same,"Tumour volume, overall values (Median)",[7],173.25 mm^3
same,"Tumour surface, overall values (Mean)",[8],78.81 mm^2
same,"Tumour surface, overall values (Median)",[8],53 mm^2
same,"Tumour volume, overall values (Mean)",[8],425.91 mm^3
same,"Tumour volume, overall values (Median)",[8],191 mm^3
same,"Differences in Ehrlich tumour growth rate vs. placebo, statistical significance p (Mann-Whitney U test)",,< 0.05
"Br.N[C@@]1(C[n+]2ccccc2)C[C@H](C(=O)O)NC1=O.[Br-] (single isomer, unassigned; isomer 2) [isomer 2, 3R,5R-1-(3-Amino-5-carboxy-2-oxopyrrolidin-3-ylmethyl)pyridinium bromide hidrobromide]","Inhibition of the in vivo growth of Ehrlich tumour cells, in words",,inhibit the in vivo growth
same,"Tumour surface, overall values (Mean)",day 0 after tumour inoculation,0 mm^2
same,"Tumour surface, overall values (Median)",day 0 after tumour inoculation,0 mm^2
same,"Tumour volume, overall values (Mean)",day 0 after tumour inoculation,0 mm^3
same,"Tumour volume, overall values (Median)",day 0 after tumour inoculation,0 mm^3
same,"Tumour surface, overall values (Mean)",day 8 after tumour inoculation,6.69 mm^2
same,"Tumour surface, overall values (Median)",day 8 after tumour inoculation,4 mm^2
same,"Tumour volume, overall values (Mean)",day 8 after tumour inoculation,10.97 mm^3
same,"Tumour volume, overall values (Median)",day 8 after tumour inoculation,4 mm^3
same,"Tumour surface, overall values (Mean)",[1],14.81 mm^2
same,"Tumour surface, overall values (Median)",[1],16 mm^2
same,"Tumour volume, overall values (Mean)",[1],32.16 mm^3
same,"Tumour volume, overall values (Median)",[1],32 mm^3
same,"Tumour surface, overall values (Mean)",[2],20.37 mm^2
same,"Tumour surface, overall values (Median)",[2],20 mm^2
same,"Tumour volume, overall values (Mean)",[2],51.87 mm^3
same,"Tumour volume, overall values (Median)",[2],40 mm^3
same,"Tumour surface, overall values (Mean)",[3],28.37 mm^2
same,"Tumour surface, overall values (Median)",[3],27.5 mm^2
same,"Tumour volume, overall values (Mean)",[3],81.81 mm^3
same,"Tumour volume, overall values (Median)",[3],68.75 mm^3
same,"Tumour surface, overall values (Mean)",[4],35.75 mm^2
same,"Tumour surface, overall values (Median)",[4],33 mm^2
same,"Tumour volume, overall values (Mean)",[4],113.75 mm^3
same,"Tumour volume, overall values (Median)",[4],91.5 mm^3
same,"Tumour surface, overall values (Mean)",[5],46.12 mm^2
same,"Tumour volume, overall values (Mean)",[5],167 mm^3
same,"Tumour surface, overall values (Mean)",[6],50.06 mm^2
same,"Tumour surface, overall values (Median)",[6],45 mm^2
same,"Tumour volume, overall values (Mean)",[6],191.91 mm^3
same,"Tumour volume, overall values (Median)",[6],135 mm^3
same,"Tumour surface, overall values (Mean)",[7],60.25 mm^2
same,"Tumour surface, overall values (Median)",[7],51 mm^2
same,"Tumour volume, overall values (Mean)",[7],258.06 mm^3
same,"Tumour volume, overall values (Median)",[7],153 mm^3
same,"Tumour surface, overall values (Mean)",[8],75.37 mm^2
same,"Tumour surface, overall values (Median)",[8],71 mm^2
same,"Tumour volume, overall values (Mean)",[8],372.5 mm^3
same,"Tumour volume, overall values (Median)",[8],266.5 mm^3
same,"Differences in Ehrlich tumour growth rate vs. placebo, statistical significance p (Mann-Whitney U test)",,< 0.05
